Consider 6 compounds from US20240285637A1, “PHOSPHODIESTERASE INHIBITORS FOR THE MITIGATION OF FRAGILE X SYNDROME SYMPTOMS” (THE ROYAL INSTITUTION FOR THE ADVANCEMENT OF …, priority 2021, published 2024).

Common to all, as to assay type: cell-based, mouse
In test [1] the test system is cerebellar stellate cells. As to the kind of experiment: Minimal stimulation protocol, evoked IPSCs before and after HFS (failure rate of GABAergic transmission).
Test [2] has as its system blood vessels (capillaries) in the molecular layer of the cerebellum. Put plainly: Acute slice vascular reactivity, cerebellar vermis slices (U46619 constriction, NMDA dilation). Details: effect on the NMDA response (vasodilation) / vasodilation (direct action on blood vessels): dose or concentration left out as unconfirmed. The note with it: for vasodilation of pre-constricted blood vessels: NMDA 50 μM, 5 mins, after U46619.

Test [3] relates to blood vessels in the somatosensory cortex. As to the kind of experiment: Acute slice vascular reactivity, somatosensory cortex. Details: effect on the NMDA response (vasodilation) / vasodilation (direct action on blood vessels): dose or concentration left out as unconfirmed. Conditions: for vasodilation of pre-constricted blood vessels: bath application of NMDA.
Where [4] appears, read: Fmr1 KO stellate cells, 10 μM external MPEP, baseline, n=7.
[5] abbreviates: Fmr1 KO stellate cells, 10 μM external MPEP, post-HFS, n=7.

Entries after “also recorded” stand apart in the source; their conditions may differ.

Consider `O=C(O)CN(CC(=O)O)c1ccccc1OCCOc1ccccc1N(CC(=O)O)CC(=O)O` [BAPTA, 1,2-bis(o-aminophenoxy)ethane-N,N,N′,N′-tetraacetic acid)], for which the “change of failure rate post-HFS” value in test [1] (WT mice, high BAPTA internal solution, data not shown) is recorded as “did not change their failure rate”.

Turning to `COc1ccc2c(c1)c(C1=C(c3c[nH]c4ccccc34)C(=O)NC1=O)cn2CCCN(C)C` [Gö6983], the “change of failure rate from baseline to post-HFS” value in test [1] (WT mice, kinase (PKC) inhibitor) is given as “did not change”.

Regarding `Cc1cccc(C#Cc2ccccc2)n1` [MPEP, 2-Methyl-6-(phenylethynyl)-pyridine], in test [1] (Fmr1 KO stellate cells, 10 μM MPEP), the “onset of iLTD” value was “prevents the onset of iLTD”. Further, in test [1] (setting [4]), the “failure rate of GABAergic transmission (mean)” value was 77.21+/−3.75% and the “time latency of synaptic events (mean)” value came to 2.78 ± 0.24 ms. Further, in test [1] (setting [5]), the “failure rate of GABA-evoked events (mean)” value was 79.98+/−4.58% and the “time latency of synaptic events (mean)” value was found to be 2.32 ± 0.29 ms. For the same compound, in test [1] (α3 KO mice, MPEP, data not shown), the “change of failure rate after HFS protocol” value is on record as “slightly decreased their failure rate”.

Turning to `CN[C@H](CC(=O)O)C(=O)O` [NMDA, N-methyl-D-aspartate], the “vasodilation of pre-constricted blood vessels” value is on record as “failed to promote blood vessel dilation; also recorded: failed to induce vasodilation” in test [2] (Fmr1 KO cerebellar slices), “caused vasodilation; also recorded: robust vasodilation” in test [2] (WT cerebellar slices), “failed to induce vasodilation” in test [3] (Fmr1 KO cortex) and “robust vasodilation” in test [3] (wildtype cortical blood vessels).

With `COc1ccc(Cc2nccc3cc(OC)c(OC)cc23)cc1OC` [papaverine], the “vasodilation (direct action on blood vessels)” value in test [2] (Fmr1 KO cerebellum) and in test [3] (Fmr1 KO cortex) was “able to induce vasodilation” each time.

Turning to `NC1=N[C@H](O)[C@H]2[C@H]3O[C@]4(O)O[C@@H]([C@@H](O)[C@@]2(N1)[C@@H]4O)[C@]3(O)CO` [tetrodotoxin], the “effect on NMDA-induced vasodilation” value is “completely blocked vasodilation” in test [2] and “blocked” in test [3].
